The values that follow come from publication PMC10851555, “Safinamide, an inhibitor of monoamine oxidase, modulates the magnitude, gating, and hysteresis of sodium ion current” (BMC Pharmacology & Toxicology, 2024).

A word on the IC50: it is the point on the concentration scale where inhibition reaches its midpoint.

The subject of test [1] is voltage-gated sodium ion (NaV) channels in pituitary GH3 cells. The test is described as follows: Window INa [INa(W)] induced by ascending ramp voltage (−100 to +40 mV over 200 ms) in GH3 cells. The format is cell-based, rat. As to conditions: for ∆G0 for gating of INa(W) activation at 0 mV: control 6.78 ± 1.1, ∆G0 = q × F × V1/2, n = 7. From the text:
The sigmoidal relationship between Vramp-induced INa(W) and the upsloping Vramp (nonlinear current–voltage relationship) was investigated and fitted with the Boltzmann function as follows: [drawing 2]
where V is the membrane potential in millivolts, Erev is the reversal potential of INa, G is the INa conductance in nanosiemens, I is the current, Vh is the voltage at which half-maximal activation or inactivation of the current occurs, q is the apparent gating charge, F is Faraday’s constant, R is the universal gas constant, and T is the absolute temperature.
The free energy ∆G0 for the gating of INa(W) was determined by assuming a two-state gating model [equilibrium between closed (resting) and open states] of the NaV channel. The ∆G0 for the activation of INa(W) at 0 mV could be calculated as follows: q × F × V1/2 [45, 46]. The standard errors in ∆G0 ( [drawing 3] ) could be calculated as follows: […]
In the present study, we investigated whether the addition of SAF to GH3 cells modulates the magnitude of INa(W) induced by ascending Vramp. Test cells were maintained at −80 mV and subjected to Vramp ascending from −100 to +40 mV over 200 ms (i.e., ramp speed of 0.7 mV/ms) to induce INa(W). […] The ∆area values of INa(W) in the absence and presence of SAF and SAF plus Ran were calculated (Fig. 7B).
Fig. 7 Stimulatory effects of SAF on window INa [INa(W)] induced by an ascending ramp voltage Vramp in GH3 cells. For the experiments, the test cells were maintained at −80 mV and subjected to Vramp ranging from −100 to +40 mV over 200 ms (ramp speed of 0.7 mV/ms). (A) INa(W) trace in the absence (a, blue) and presence (b, red) of 10 μM SAF. The inset indicates the Vramp protocol, and the downward deflection indicates inward-directed current. The continuous gray lines corresponding to the untreated or SAF-treated (10 μM) cells were fitted (least-squares minimization) with the Boltzmann equation. The values of […] and q (apparent gating charge) induced by ascending Vramp over 200 ms in the absence (blue) of SAF were, respectively, −34 mV and 2.1 e; the corresponding values in the presence (red) of 10 μM SAF were −38 mV and 2.8 e, respectively. (B) Summary graph illustrating the effects of SAF (3 and 10 μM) and SAF (10 μM) plus Ran (10 μM) on the Δarea of INa(W) in GH3 cells (mean ± standard error of the mean; n = 7 for each point). The value of Δarea was measured at a voltage ranging from −80 and +40 mV, which corresponded to INa(W) induced by the ascending Vramp. […] (C) Summary graph illustrating the effects of SAF (3 and 10 μM) and SAF plus Ran (10 μM) on ΔG0 (mean ± standard error of the mean; n = 7 for each point). The estimation of ΔG0 for the induction of instantaneous INa(W) is described in the Materials and Methods section.

The subject of a further test is MAO-B. The conditions noted are these: read-out: IC50 for inhibition of MAO-B activity; cited from earlier work.

As to `C[C@H](NCc1ccc(OCc2cccc(F)c2)cc1)C(N)=O` [SAF, (S)-2-((4-((3-fluorobenzyl)oxy)benzyl)amino)propanamide], the “∆G0 for gating of INa(W) activation at 0 mV” value in test [1] (3 μM SAF) turned out to be 2.11 ± 0.382 kcal/mol; in test [1] (10 μM SAF) it was […]. Also, the “q (apparent gating charge) of INa(W)” value in test [1] (10 μM SAF, absence of SAF 2.1 e) amounted to 2.8 e. For the same molecule, the “V1/2 (half-maximal activation voltage) of INa(W) induced by ascending Vramp (Boltzmann fit)” value in test [1] (10 μM SAF, absence of SAF −34 mV) is recorded as −38 mV. Moreover, in test [1] (within 1 min of SAF exposure), the “amplitude and strength (∆area) of INa(W)” value is on record as “sharply increased”. The half-maximal inhibitory concentration (IC50) with MAO-B is […].
